Measurements as given in patent publication US20020037933A1, “Management of septic shock” (priority 2000, published 2002).

Tested on: endotoxemic pigs (E. coli endotoxin infusion)
[1] = during the endotoxemic period, versus fat emulsion

CC(C)c1cccc(C(C)C)c1O [propofol, 2,6-diisopropylphenol]
deaths from hypotension and/or release of gut bacteria into the bloodstream (already anaesthetised endotoxaemic pigs): No deaths
arterial carbon dioxide tension (PaCO2) [1]: lower
arterial oxygen tension (PaO2) [1]: higher
counteracting endotoxin induced deterioration of arterial oxygen tension (PaO2) (endotoxaemic pigs): effective
